Measured values taken from patent US20220227765A1, “PYRIDO-INDOLE ANALOGUES AS GPX4 INHIBITORS” (Ferro Therapeutics, Inc., priority 2019, published 2022).
Like-named read-outs stand apart in the source and are kept apart here.

Experiments:
Type in all cases: cell-based, human
786-O = experiment: Cell proliferation (Alamar Blue) assay, 786-O; settings: Homo sapiens, 786-0, 24 h
Description: (§1) Cell viability assay was performed to assess the potency of the compounds in human cancer cell lines 786-0 (renal cell carcinoma) and SJSA-1 (osteosarcoma). Additional cell lines, such as pancreatic cancer cell lines (Panc 02.13, BxPC-3, Panc 12, Panc 02.03, Panc 6.03, PSN-1, HPAC, and Capan-1), prostate cancer cell lines (PC-3, DU145, 22Rv1, NCI-H660, BPH1, LNCaP, BM-1604, and MDA PCa 2b), etc., can be tested in a similar method.
(§2) Cells (SJSA-1, 786-0 and A431) were seeded (5000 cells/100 μL/well) in 96-well tissue culture plate and incubated at 37° C./5% CO2 for 16-24 hours. The cells were then treated with compounds (25 μL of 5×). The compound concentrations were 10-0.0005 μM prepared in 3-fold serial dilutions with final DMSO concentration of 1%. The plates were then incubated for 24 h at 37° C./5% CO2 in a moist environment. Then Alamar Blue™ reagent (final concentration 1×-12.5 μL) was added to each well and incubated for 1.5 hours at 37° C./5% CO2. The plates were read on fluorescence reader at 540 nm excitation and 590 nm emission wavelengths. The IC50 values were subsequently determined using a sigmoidal dose-response curve (variable slope) in GraphPad Prism® 5 software. Table A-3, Table B-3 and Table C-3 show cell proliferation data for certain compounds as described herein.

SJSA-1 = experiment: Cell proliferation (Alamar Blue) assay, SJSA-1; settings: Homo sapiens, SJSA-1, 24 h
Description: as §1, §2

A431 = experiment: Cell proliferation (Alamar Blue) assay, A431
Description: as §1, §2

[1] = Table A-3, SJSA-1 cells, 24 h, read-out: IC50 (μM) SJSA-1
[2] = Homo sapiens, A-431, 24 h, Table A-3, A431 cells
[3] = Table B-3, head prints SJSB-1, 24 h, read-out: IC50 (μM) SJSB-1
[4] = Homo sapiens, A-431, 24 h, Table B-3, A431 cells
[5] = Table C-3, SJSA-1 cells, 24 h, read-out: IC50 (μM) SJSA-1
[6] = Homo sapiens, A-431, 24 h, Table C-3, A431 cells

IC50 (786-O; Table B-3, 786-O cells) | IC50 (SJSA-1; [3]) | IC50 (A431; [4]) | SMILES | other results
0.135 µM | 0.15 µM | > 10 µM | C#CC(=O)N1[C@@H](CCCC)Cc2c([nH]c3c(F)cc(F)cc23)[C@@H]1c1ccc(N2CCN(C)CC2)c(C#N)c1 [Compound B-58] | –
0.2 µM | 0.16 µM | > 10 µM | C#CC(=O)N1[C@@H](CCCC)Cc2c([nH]c3c(F)cc(F)cc23)[C@@H]1CC(C)C [Compound B-82] | –
0.062 µM | 0.068 µM | > 10 µM | C#CC(=O)N1[C@@H](CC)Cc2c([nH]c3c(F)cc(F)cc23)[C@@H]1c1ccc(F)cc1 [Compound B-61] | –
0.008 µM | 0.002 µM | > 10 µM | CCCCCOC(=O)Nc1ccc([C@H]2c3[nH]c4c(F)cc(F)cc4c3C[C@H](CCCC)N2C(=O)CCl)cc1 [Compound B-89] | –
0.123 µM | 0.167 µM | > 10 µM | C#CC(=O)N1[C@@H](CCCC)Cc2c([nH]c3c(F)cc(F)cc23)[C@@H]1c1nccn1C [Compound B-24] | –
0.012 µM | 0.024 µM | > 10 µM | CCCC[C@H]1Cc2c([nH]c3c(F)cc(F)cc23)[C@H](c2ccc(N)cc2)N1C(=O)CCl [Compound B-85] | –
0.222 µM | 0.223 µM | > 10 µM | C#CC(=O)N1[C@@H](CCCC)Cc2c([nH]c3c(F)cc(F)cc23)[C@@H]1C(C)C [Compound B-72] | –
0.011 µM | 0.016 µM | > 10 µM | C#CC(=O)N1[C@@H](CCCC)Cc2c([nH]c3c(F)cc(F)cc23)[C@@H]1c1ccc(N2CCC2)cc1 [Compound B-59] | –
0.227 µM | 0.239 µM | > 10 µM | C#CC(=O)N1[C@@H](CCCC)Cc2c([nH]c3c(F)cc(F)cc23)[C@@H]1c1ccc(NC(=O)OCCCC(=O)O)cc1 [Compound B-86] | –
0.05 µM | 0.04 µM | 4.4 µM | C#CC(=O)N1[C@@H](CCCC)Cc2c([nH]c3c(F)cc(F)cc23)[C@@H]1CCCC [Compound B-74] | –

More lines, now with the values behind:

SMILES | IC50 (786-O; Table B-3, 786-O cells) | IC50 (SJSA-1; [3]) | IC50 (A431; [4]) | other results
C#CC(=O)N1[C@@H](CCCC)Cc2c([nH]c3ncccc23)[C@@H]1c1ccc(F)cc1 [Compound A-3] | – | – | – | IC50 (786-O; Table A-3, 786-O cells): 0.017 µM; IC50 (SJSA-1; [1]): 0.017 µM; IC50 (A431; [2]): 8.36 µM
C#CC(=O)N1[C@@H](CCCC)Cc2c([nH]c3c(F)cc(F)cc23)[C@@H]1CCCCCCCC [Compound B-79] | 0.07 µM | 0.08 µM | 9.4 µM | –
C#CC(=O)N1[C@@H](CCCC)Cc2c([nH]c3ccccc23)[C@@H]1c1ccc(NC23CC4CC(CC(C4)C2)C3)cc1 [Compound B-18] | 0.005 µM | 0.006 µM | – | IC50 (A431; Table B-3, A431 cells, 24 h): 7.8 µM
CCCC[C@H]1Cc2c([nH]c3c(F)cc(F)cc23)[C@H](C23CC(N)(C2)C3)N1C(=O)CCl [Compound B-83] | 0.12 µM | 0.12 µM | > 10 µM | –
C#CC(=O)N1C(CCCC)Cc2c([nH]c3ccccc23)[C@@H]1c1ccc(CNCC23CC4CC(CC(C4)C2)C3)cc1 (stereo partly drawn) [Compound B-45A] | 0.0002 µM | 0.001 µM | 3.8 µM | –
C#CC(=O)N1[C@@H](CCCC)Cc2c([nH]c3c(F)cc(F)cc23)[C@@H]1COCCOC [Compound C-7] | – | – | – | IC50 (786-O; Table C-3, 786-O cells): 0.043 µM; IC50 (SJSA-1; [5]): 0.093 µM; IC50 (A431; [6]): 6.8 µM
C#CC(=O)N1[C@@H](CCCC)Cc2c([nH]c3ccccc23)[C@@H]1c1ccc(N2CCC3(COC3)C2)cc1 [Compound B-69, 1-((1S,3S)-1-(4-(2-oxa-6-azaspiro[3.4]octan-6-yl)phenyl)-3-butyl-1,3,4,9-tetrahydro-2H-pyrido[3,4-b]indol-2-yl)prop-2-yn-1-one] | 0.047 µM | 0.036 µM | > 1 µM | –
C#CC(=O)N1[C@@H](C)Cc2c([nH]c3ccccc23)[C@]1(C)c1ccc(F)cc1 [Compound C-37] | – | – | – | IC50 (786-O; Table C-3, 786-O cells): 0.017 µM; IC50 (SJSA-1; [5]): 0.054 µM; IC50 (A431; [6]): > 10 µM
C#CC(=O)N1[C@@H](CCCC)Cc2c([nH]c3ccccc23)[C@@H]1c1ccc(-c2nc(C)no2)cc1 [Compound B-2, 1-((1S,3S)-3-butyl-1-(4-(3-methyl-1,2,4-oxadiazol-5-yl)phenyl)-1,3,4,9-tetrahydro-2H-pyrido[3,4-b]indol-2-yl)prop-2-yn-1-one] | 0.006 µM | 0.014 µM | 3.2 µM | –
C#CC(=O)N1[C@@H](CCCC)Cc2c([nH]c3ccccc23)[C@@H]1CCCCCC [Compound B-93] | 0.091 µM | 0.077 µM | > 10 µM | –
CCCCCOC(=O)NC12CC([C@H]3c4[nH]c5c(F)cc(F)cc5c4C[C@H](CCCC)N3C(=O)CCl)(C1)C2 [Compound B-90] | 0.013 µM | 0.03 µM | > 10 µM | –
C#CC(=O)N1[C@@H](CCCC)Cc2c([nH]c3ccccc23)[C@@H]1c1ccc(NC2CCS(=O)(=O)CC2)cc1 [Compound B-13] | 0.013 µM | 0.018 µM | 7.2 µM | –
C#CC(=O)N1[C@@H](CCCC)Cc2c([nH]c3c(F)cc(F)cc23)[C@@H]1CC(C)C [Compound C-5] | – | – | – | IC50 (786-O; Table C-3, 786-O cells): 0.22 µM; IC50 (SJSA-1; [5]): 0.22 µM; IC50 (A431; [6]): > 10 µM
C#CC(=O)N1C(CCCC)Cc2c([nH]c3ccccc23)[C@@H]1c1ccc(C(O)CO)cc1 (stereo partly drawn) [Compound B-95] | 0.32 µM | 0.74 µM | > 10 µM | –
C#CC(=O)N1[C@@H](CCCC)Cc2c([nH]c3ccccc23)[C@@H]1c1ccc(NC2CCCCC2)cc1 [Compound B-71] | 0.042 µM | 0.056 µM | > 10 µM | –
C#CC(=O)N1[C@@H](CCCC)Cc2c([nH]c3ccccc23)[C@@H]1c1ccc(C(=O)NC23CC4CC(CC(C4)C2)C3)cc1 [Compound B-7, N-((3R,5R,7R)-adamantan-1-yl)-4-((1S,3S)-3-butyl-2-propioloyl-2,3,4,9-tetrahydro-1H-pyrido[3,4-b]indol-1-yl)benzamide] | 0.002 µM | 0.002 µM | 5.5 µM | –
CCCC[C@H]1Cc2c([nH]c3ccccc23)[C@H](c2ccc(C(=O)NC34CC5CC(CC(C5)C3)C4)cc2)N1C(=O)CCl [Compound B-1, N-((1R,3R)-adamantan-1-yl)-4-((1S,3S)-3-butyl-2-(2-chloroacetyl)-2,3,4,9-tetrahydro-1H-pyrido[3,4-b]indol-1-yl)benzamide] | 0.001 µM | 0.003 µM | 2.7 µM | –
C#CC(=O)N1[C@@H](CCCC)Cc2c([nH]c3ccccc23)[C@@H]1c1ccc(C(=O)NCC2(O)CCC2)cc1 [Compound B-16] | 0.007 µM | 0.029 µM | 6.4 µM | –
C[C@H]1Cc2c([nH]c3ncccc23)[C@@H](c2ccc(F)cc2)N1C(=O)CCl [Compound A-2] | – | – | – | IC50 (786-O; Table A-3, 786-O cells): 3.52 µM; IC50 (SJSA-1; [1]): 9.11 µM; IC50 (A431; [2]): 7.06 µM
C#CC(=O)N1[C@@H](CCCC)Cc2c([nH]c3ccccc23)[C@@H]1c1ccc(NC(=O)c2ccncc2)cc1 [Compound B-15] | 0.013 µM | 0.029 µM | > 10 µM | –
C#CC(=O)N1C(c2ccn(-c3ccc(F)cc3)n2)c2[nH]c3ccccc3c2C[C@@H]1CCCC (stereo partly drawn) [Compound B-62] | 0.029 µM | 0.021 µM | 6.4 µM | –
C#CC(=O)N1C(CCCC)Cc2c([nH]c3ccccc23)[C@H]1c1ccc(CNCC23CC4CC(CC(C4)C2)C3)cc1 (stereo partly drawn) [Compound B-45B] | 0.005 µM | 0.011 µM | 1.7 µM | –
C#CC(=O)N1[C@@H](CCCC)Cc2c(n(C)c3ccccc23)[C@@H]1c1ccc(NC23CC4CC(CC(C4)C2)C3)cc1 [Compound B-70, 1-((1S,3S)-1-(4-(((1R,3R,5S)-adamantan-1-yl)amino)phenyl)-3-butyl-9-methyl-1,3,4,9-tetrahydro-2H-pyrido[3,4-b]indol-2-yl)prop-2-yn-1-one] | 0.0165 µM | 0.066 µM | 4.76 µM | –
C#CC(=O)N1[C@@H](CCCC)Cc2c([nH]c3c(F)cc(F)cc23)[C@@H]1CCCCCCCCCCCCCCC [Compound C-6] | – | – | – | IC50 (786-O; Table C-3, 786-O cells): > 10 µM; IC50 (SJSA-1; [5]): > 10 µM; IC50 (A431; [6]): > 10 µM
C#CC(=O)N1[C@@H](c2ccc(NC34CC5CC(CC(C5)C3)C4)cc2)c2[nH]c3ccccc3c2C[C@@H]1C(=O)OC [Compound B-6, methyl (1S,3R)-1-(4-(((3R,5R,7R)-adamantan-1-yl)amino)phenyl)-2-propioloyl-2,3,4,9-tetrahydro-1H-pyrido[3,4-b]indole-3-carboxylate] | 0.024 µM | 0.024 µM | 6.1 µM | –
CCCC[C@H]1Cc2c([nH]c3ccccc23)[C@H](c2ccc(NC(=O)c3ccncc3)cc2)N1C(=O)CCl [Compound B-14] | 0.015 µM | 0.019 µM | 3 µM | –
CCCC[C@H]1Cc2c([nH]c3ccccc23)[C@](C)(c2ccc(F)cc2)N1C(=O)CCl [Compound C-14] | – | – | – | IC50 (786-O; Table C-3, 786-O cells): 0.017 µM; IC50 (SJSA-1; [5]): 0.017 µM; IC50 (A431; [6]): > 10 µM
